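Assay format: 96-well plates, 48-hour exposure. Abbreviation: GI50, concentration required for 50% inhibition of growth. TGI: concentration producing complete growth inhibition.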
Legend:
Experiment in all cases: NCI anticancer screen, dose series, 48 h
HOP-62 NSCLC = tested on: HOP-62 NSCLC
MALME-3M melanoma = tested on: MALME-3M melanoma
ACHN renal = tested on: ACHN renal
T-47D breast = tested on: T-47D breast
NCI/ADR-RES ovarian = tested on: NCI/ADR-RES ovarian
M14 melanoma = tested on: M14 melanoma
PC-3 prostate = tested on: PC-3 prostate
SK-MEL-5 melanoma = tested on: SK-MEL-5 melanoma
SNB-75 CNS = tested on: SNB-75 CNS
786-0 renal = tested on: 786-0 renal
KM12 colon = tested on: KM12 colon
IGROV1 ovarian = tested on: IGROV1 ovarian
HCT-116 colon = tested on: HCT-116 colon
UACC-257 melanoma = tested on: UACC-257 melanoma
LOX IMVI melanoma = tested on: LOX IMVI melanoma
SF-268 CNS = tested on: SF-268 CNS
SW-620 colon = tested on: SW-620 colon
OVCAR-4 ovarian = tested on: OVCAR-4 ovarian
OVCAR-8 ovarian = tested on: OVCAR-8 ovarian
U251 CNS = tested on: U251 CNS
SR leukemia = tested on: SR leukemia
HT29 colon = tested on: HT29 colon
NCI-H460 lung = tested on: NCI-H460 lung
COLO 205 colon = tested on: COLO 205 colon
MDA-MB-231 breast = tested on: MDA-MB-231 breast
HL-60(TB) leukemia = tested on: HL-60(TB) leukemia
NCI-H522 lung = tested on: NCI-H522 lung
HS 578T breast = tested on: HS 578T breast
UO-31 renal = tested on: UO-31 renal
SF-539 CNS = tested on: SF-539 CNS
HCT-15 colon = tested on: HCT-15 colon
RXF 393 renal = tested on: RXF 393 renal
SK-OV-3 ovarian = tested on: SK-OV-3 ovarian
HOP-92 NSCLC = tested on: HOP-92 NSCLC
MDA-MB-435 = tested on: MDA-MB-435
A549 NSCLC = tested on: A549 NSCLC
A498 renal = tested on: A498 renal
OVCAR-3 ovarian = tested on: OVCAR-3 ovarian
MCF7 breast = tested on: MCF7 breast
CAKI-1 renal = tested on: CAKI-1 renal
MOLT-4 leukemia = tested on: MOLT-4 leukemia
K-562 leukemia = tested on: K-562 leukemia
RPMI-8226 leukemia = tested on: RPMI-8226 leukemia
CCRF-CEM leukemia = tested on: CCRF-CEM leukemia
UACC-62 melanoma = tested on: UACC-62 melanoma
HCC-2998 colon = tested on: HCC-2998 colon
NCI-H23 lung = tested on: NCI-H23 lung
TK-10 renal = tested on: TK-10 renal
SK-MEL-2 melanoma = tested on: SK-MEL-2 melanoma
DU-145 prostate = tested on: DU-145 prostate
SNB-19 CNS = tested on: SNB-19 CNS
BT-549 breast = tested on: BT-549 breast
NCI-H226 lung = tested on: NCI-H226 lung
SK-MEL-28 melanoma = tested on: SK-MEL-28 melanoma
SN12C renal = tested on: SN12C renal
OVCAR-5 ovarian = tested on: OVCAR-5 ovarian

Which results are given for COc1cc(CSc2nc3ccc(C)cc3c(=O)n2Cc2ccccc2)cc(OC)c1OC?
GI50 (HOP-62 NSCLC): 3.21 µM; TGI (HOP-62 NSCLC): 21.4 µM; GI50 (MALME-3M melanoma): 3.09 µM; TGI (MALME-3M melanoma): 34.3 µM; GI50 (ACHN renal): 3.89 µM; TGI (ACHN renal): 55.7 µM; GI50 (T-47D breast): 2.98 µM; TGI (T-47D breast): 32.6 µM; GI50 (NCI/ADR-RES ovarian): 1.51 µM; TGI (NCI/ADR-RES ovarian): 14.6 µM; GI50 (M14 melanoma): 3.08 µM; TGI (M14 melanoma): > 100 µM; GI50 (PC-3 prostate): 2.66 µM; TGI (PC-3 prostate): > 100 µM; GI50 (SK-MEL-5 melanoma): 1.45 µM; TGI (SK-MEL-5 melanoma): 12.8 µM; GI50 (SNB-75 CNS): 0.804 µM; TGI (SNB-75 CNS): 4.21 µM; GI50 (786-0 renal): 7.49 µM; TGI (786-0 renal): 65.6 µM; GI50 (KM12 colon): 1.08 µM; TGI (KM12 colon): > 100 µM; GI50 (IGROV1 ovarian): 3.47 µM; TGI (IGROV1 ovarian): > 100 µM; GI50 (HCT-116 colon): 2.08 µM; TGI (HCT-116 colon): 48.9 µM; GI50 (UACC-257 melanoma): 6.73 µM; TGI (UACC-257 melanoma): > 100 µM; GI50 (LOX IMVI melanoma): 4.66 µM; TGI (LOX IMVI melanoma): > 100 µM; GI50 (SF-268 CNS): 5.01 µM; TGI (SF-268 CNS): > 100 µM; GI50 (SW-620 colon): 1.56 µM; TGI (SW-620 colon): > 100 µM; GI50 (OVCAR-4 ovarian): 5.01 µM; TGI (OVCAR-4 ovarian): 63.4 µM; GI50 (OVCAR-8 ovarian): 4.41 µM; TGI (OVCAR-8 ovarian): > 100 µM; GI50 (U251 CNS): 3.2 µM; TGI (U251 CNS): 20.8 µM; GI50 (SR leukemia): 0.372 µM; TGI (SR leukemia): 11.1 µM; GI50 (HT29 colon): 0.595 µM; TGI (HT29 colon): 80.8 µM; GI50 (NCI-H460 lung): 2.26 µM; TGI (NCI-H460 lung): > 100 µM; GI50 (COLO 205 colon): 1.05 µM; TGI (COLO 205 colon): 3.13 µM; GI50 (MDA-MB-231 breast): 3.26 µM; TGI (MDA-MB-231 breast): > 100 µM; GI50 (HL-60(TB) leukemia): 3.3 µM; TGI (HL-60(TB) leukemia): > 100 µM; GI50 (NCI-H522 lung): 0.327 µM; TGI (NCI-H522 lung): 2.53 µM; GI50 (HS 578T breast): 2.57 µM; TGI (HS 578T breast): 48.8 µM; GI50 (UO-31 renal): 3.05 µM; TGI (UO-31 renal): > 100 µM; GI50 (SF-539 CNS): 2.26 µM; TGI (SF-539 CNS): 8.32 µM; GI50 (HCT-15 colon): 0.773 µM; TGI (HCT-15 colon): > 100 µM; GI50 (RXF 393 renal): 2.29 µM; TGI (RXF 393 renal): 9.75 µM; GI50 (SK-OV-3 ovarian): 2.86 µM; TGI (SK-OV-3 ovarian): 17.8 µM; GI50 (HOP-92 NSCLC): 1.44 µM; TGI (HOP-92 NSCLC): 7.42 µM; GI50 (MDA-MB-435): 0.337 µM; TGI (MDA-MB-435): 2.62 µM; GI50 (A549 NSCLC): 1.72 µM; TGI (A549 NSCLC): > 100 µM; GI50 (A498 renal): 2.14 µM; TGI (A498 renal): 12.4 µM; GI50 (OVCAR-3 ovarian): 0.956 µM; TGI (OVCAR-3 ovarian): 7.02 µM; GI50 (MCF7 breast): 0.587 µM; TGI (MCF7 breast): 22.8 µM; GI50 (CAKI-1 renal): 2.48 µM; TGI (CAKI-1 renal): > 100 µM; GI50 (MOLT-4 leukemia): 4.57 µM; TGI (MOLT-4 leukemia): > 100 µM; GI50 (K-562 leukemia): 0.624 µM; TGI (K-562 leukemia): > 100 µM; GI50 (RPMI-8226 leukemia): 2.96 µM; TGI (RPMI-8226 leukemia): > 100 µM; GI50 (CCRF-CEM leukemia): 2.37 µM; TGI (CCRF-CEM leukemia): > 100 µM; GI50 (UACC-62 melanoma): 2.03 µM; TGI (UACC-62 melanoma): 35.7 µM; GI50 (HCC-2998 colon): 3.96 µM; TGI (HCC-2998 colon): > 100 µM; GI50 (NCI-H23 lung): 4.4 µM; TGI (NCI-H23 lung): > 100 µM; GI50 (TK-10 renal): 6.47 µM; TGI (TK-10 renal): 47.9 µM; GI50 (SK-MEL-2 melanoma): 4.05 µM; TGI (SK-MEL-2 melanoma): 43.1 µM; GI50 (DU-145 prostate): 3.14 µM; TGI (DU-145 prostate): 20.4 µM; GI50 (SNB-19 CNS): 5.93 µM; TGI (SNB-19 CNS): > 100 µM; GI50 (BT-549 breast): 7.07 µM; TGI (BT-549 breast): 77.5 µM; GI50 (NCI-H226 lung): 11.5 µM; TGI (NCI-H226 lung): 96.1 µM; GI50 (SK-MEL-28 melanoma): 2.99 µM; TGI (SK-MEL-28 melanoma): 96.8 µM; GI50 (SN12C renal): 6.53 µM; TGI (SN12C renal): > 100 µM; GI50 (OVCAR-5 ovarian): 4.82 µM; TGI (OVCAR-5 ovarian): > 100 µM
